The target in one experiment is T1, Human D2R (Homo sapiens, UniProt P14416).
T1 construct: expressed in transfected cells; host or cells: CHO-D2R #S20 cell line (membranes)
Put plainly: D2R functional cAMP (HTRF) assay in CHO-D2 #S20 cells. In kind it is cell-based. Conditions: for EC50: cAMP HTRF, CHO-D2 cells, forskolin 10 µM, mean±SEM n=3; for Emax: relative to the maximal effect of dopamine. As to the method: KB=I C50/(1+([NECA]/EC50 NECA)).
Functional assays for the human D2R were carried out in a CHO-D2 #S20 cell line. 5,000 cells were seed ed in 30 µl of Opti-ME M (Invitrogen 11058) and 500µM IBMX (Sigma 17018) on a 96-well isoplate (PerkinElmer 6005030). The studied compounds wer e then added and incubated for 10 min at 37 °C with gentle stirring (150 rpm). Then, 10 µM […]
forskolin (Sigma 17018) was added and incubated for 5 min at 37 °C with gentle stirring (150 rpm). Reagents (#CISBIO 62AM4PEC) were added and, after incubation for 60 min at rt with gentle stirring (90 rpm) and protected from light, homogeneous time resolved fluorescence (HTRF, λEx: 320 nm; λEm: 620-665 nm) from each well was measured using a Tecan Infinite M1000 Pro. Data were normalized to the maximum effect of dopamine. EC50 and Ema x values were obtained after fitting the d ata to a four -parameter logistic equatio n using Prism V2. 1 (Graph Pad Inc, Chicago, USA) . […]

The target in a further experiment is T2, D4R (Homo sapiens, UniProt P21917, DEL265-296).
T2 sequence (P21917 with tags, fused parts or gaps DEL265-296): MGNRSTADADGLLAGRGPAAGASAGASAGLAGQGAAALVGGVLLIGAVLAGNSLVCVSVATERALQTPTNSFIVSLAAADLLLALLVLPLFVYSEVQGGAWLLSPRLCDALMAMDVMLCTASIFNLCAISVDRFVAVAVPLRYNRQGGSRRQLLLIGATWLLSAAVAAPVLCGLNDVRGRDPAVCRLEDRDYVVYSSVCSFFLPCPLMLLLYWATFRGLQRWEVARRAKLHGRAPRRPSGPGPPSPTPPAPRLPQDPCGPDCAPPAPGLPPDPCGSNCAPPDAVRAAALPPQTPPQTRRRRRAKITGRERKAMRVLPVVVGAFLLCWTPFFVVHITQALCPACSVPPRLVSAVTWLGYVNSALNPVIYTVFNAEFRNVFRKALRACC
Nature of the experiment: D4R competition binding ([3H]-spiperone). Conditions: for inhibition at 10 µM: 2 h, 10 µM compound, n=2, read-out: D4R % displacement at 10 µM; for Ki: mean±SEM of two experiments in duplicate, read-out: D4R binding affinity Ki. As to the method: D4R competition binding experiments were carried out in polypropylene 96 -well plate s. Each well contained 35 µg of membranes from a CHO-D4R cell line (Perkin Elmer, RBHD42M400U A, protein concentration=14000 µg/ml), 1 nM [3H]-spiperone (68 Ci/mmol, 1 mCi/ml, Perkin Elmer NET1187001MC), and the compound studied. Non-specific binding was determined in the presence of 25 µM haloperidol (Sigma H1512). The reaction mixture (250 µl/well) was incubated at 27 °C for 120 min, after which 200 µL was transferred to GF/C 96-well plates (Millipore, Madrid, Spain) pretreated with 0.5% PEI and treated with binding buffer (50 mM Tris-HCl, 1 mM EDTA, 5 mM MgCl2, 5 mM KCl, 120 mM NaCl, pH=7.4). The samples were filtered and washed f our times with 250 µl wash buffer (50 mM Tris-HCl, 0.9% NaCl, pH=7.4) before measuring in a microplate beta scintillation counter (Microbeta Trilux, PerkinElmer, Madrid, Spain). Two independent experiments were carried out to calculate Ki values (n=2). […]

For a further experiment, the target named is T3, H1R (Homo sapiens, UniProt P35367).
T3 construct: expressed in transfected cells; host or cells: CHO-H1R cell line (membranes)
Put plainly: H1R competition binding ([3H]pyrilamine). Conditions: for H1R % displacement at 10 µM: 10 µM compound, n=2. As to the method: H1R competition binding experiments were carried out in polypropylene 96-well plates. Each well contained 50 µg of membranes from a CHO-H1R cell line (protein concentration=3860 µg/ml), 4 nM [3H]pyrilamine (20. 1 Ci/mmol, 1 mCi/ml, Perkin Elmer NET594250UC ), and the compound studied. Non-specific binding was determined in the presence of 10 µM triprolidine (T6764, Sigma Aldrich). The reaction mixture (250 µl/well) was incubated at 27 °C for 60 min, after which 200 µL was transferred to GF/B 96 -well plates (Millipore, Madrid, Spain) pretreated with 0. 1% Tween 20 and assay b uffer (Na+ / K+ phosphate buffer pH=7. 4).
The samples were then filtered and washed fou r times with 250 µl wash buffer (Na+/K+ phosphate buffer, pH=7.4), after which 30 µL Universol (MP Biomedicals, Spain) was added […]
and measurements were performed in a microplate beta scintillation counter (Microbeta Trilux, PerkinElmer, Madrid, Spain). Two independent experiments were carried out to calculate Ki values (n=2).
Data were adjusted to non-linear fitting by using Prism V2.1 (GraphPad Inc, Chicago, USA) and Ki values were calculated by using the Cheng-Prusoff equation25. […]
KB=I C50/(1+([NECA]/EC50 NECA)). […]

The target of a further experiment is T4, Human A1AR (Homo sapiens, UniProt P30542).
T4 construct: expressed in transfected cells; host or cells: CHO-A1AR cell line (membranes)
T4 sequence (P30542 1-326): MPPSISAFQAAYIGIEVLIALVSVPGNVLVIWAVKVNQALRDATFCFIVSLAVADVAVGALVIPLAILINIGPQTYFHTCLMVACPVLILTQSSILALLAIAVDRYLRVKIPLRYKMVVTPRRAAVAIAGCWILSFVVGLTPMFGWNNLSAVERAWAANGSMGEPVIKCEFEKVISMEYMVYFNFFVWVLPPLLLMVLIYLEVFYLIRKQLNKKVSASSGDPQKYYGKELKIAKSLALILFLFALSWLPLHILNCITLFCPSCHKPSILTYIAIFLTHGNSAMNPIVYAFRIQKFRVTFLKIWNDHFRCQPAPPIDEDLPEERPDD
Put plainly: A1AR competition binding ([3H]-DPCPX). Conditions: for A1AR % displacement at 10 µM: 10 µM compound, n=2. As to the method: Human A1AR competition binding experiments were carried out in multiscreen GF/C 96 -well plates (Millipore, Madrid, Spain) pretreated with assay buffer ( 20 mM Hepes, 100 mM NaCl, 10 mM MgCl2, 2 U/ml adeno sine deamina se, pH=7.4). Each well contained 5 µg of membranes from a CHO-A1AR cell line, 1 nM [3H]-DPCPX (137 Ci/mmol, 1 mCi/Ml, Perkin Elmer NET974001MC), and the compound studied. Non-specific binding was determined in the presence of R-PIA 10 µM (Sigma P4532). The reaction mixture (200 µl/well) was incubated at 25°C for 60 min. The samples were then filtered and washed four times with 250 µl wash buffer (20 mM Hepes, 100 mM NaCl, 10 mM MgCl2, pH=7.4) before measuring in a microplate beta scintillati on counter (Microbeta Trilux, PerkinElmer, Madrid, Spain). Two independent experiments were carried out to calculate K i values (n=2). […]

SMILES strings stand for the structures.

T3 sequence (P35367 whole entry, species assumed): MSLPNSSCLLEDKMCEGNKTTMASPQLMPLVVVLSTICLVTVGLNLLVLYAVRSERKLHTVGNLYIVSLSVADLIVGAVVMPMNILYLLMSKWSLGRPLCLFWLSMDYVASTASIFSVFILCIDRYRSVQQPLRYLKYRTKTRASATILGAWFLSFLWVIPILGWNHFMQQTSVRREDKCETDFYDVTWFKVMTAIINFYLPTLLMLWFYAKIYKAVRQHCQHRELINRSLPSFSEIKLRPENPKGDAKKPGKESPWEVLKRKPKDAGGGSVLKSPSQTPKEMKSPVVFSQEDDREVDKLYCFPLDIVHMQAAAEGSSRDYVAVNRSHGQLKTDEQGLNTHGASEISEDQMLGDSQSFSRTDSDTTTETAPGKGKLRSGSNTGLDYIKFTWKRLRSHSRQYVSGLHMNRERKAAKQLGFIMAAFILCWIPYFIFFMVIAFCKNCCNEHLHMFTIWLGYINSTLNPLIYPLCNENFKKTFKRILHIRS
T1 sequence (P14416 whole entry): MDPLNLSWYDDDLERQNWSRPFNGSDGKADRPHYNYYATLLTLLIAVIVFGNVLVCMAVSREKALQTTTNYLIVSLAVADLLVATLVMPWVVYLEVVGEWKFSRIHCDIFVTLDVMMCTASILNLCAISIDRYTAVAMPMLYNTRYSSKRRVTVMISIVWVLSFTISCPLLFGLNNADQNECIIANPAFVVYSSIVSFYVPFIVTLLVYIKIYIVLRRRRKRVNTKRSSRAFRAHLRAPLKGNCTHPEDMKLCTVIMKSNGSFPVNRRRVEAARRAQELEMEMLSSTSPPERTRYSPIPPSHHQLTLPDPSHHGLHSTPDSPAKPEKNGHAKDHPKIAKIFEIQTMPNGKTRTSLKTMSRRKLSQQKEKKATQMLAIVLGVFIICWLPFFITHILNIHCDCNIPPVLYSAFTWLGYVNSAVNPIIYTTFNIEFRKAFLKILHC

What is called EC50 is the concentration that produces a half-maximal response. The term Emax denotes the maximal effect, on the per cent scale that the assay sets. Regarding `CCN(CCCCC(=O)Nc1nc2c(Br)cccc2s1)C1Cc2ccccc2C1` [Compound 22], on Human D2R, a half-maximal response (EC50) required 2500 ± 900 nM and the Emax was determined as 119 ± 6%. For the same compound, at D4R, the inhibition at 10 µM came out at 19 ± 1%. In addition, the “H1R % displacement at 10 µM” value at H1R turned out to be 12 ± 3%.
One may read the Ki as the equilibrium dissociation constant of an inhibitor or competing ligand from its target. At Human D2R, `CCCN(CCCCC(=O)Nc1nc2c(OC)cccc2s1)C1Cc2ccccc2C1` [Compound 26] had an EC50 of 990 ± 380 nM and an Emax of 94 ± 3%. For the same compound, the “A1AR % displacement at 10 µM” value at Human A1AR is 22 ± 1%. The Ki at D4R was 700 ± 80 nM.
On Human D2R, `CCCN(CCCCC(=O)Nc1nc2c(Br)cccc2s1)C1Cc2ccccc2C1` [Compound 27] returned an EC50 of 180 ± 30 nM and an Emax of 89 ± 4%. In addition, the “A1AR % displacement at 10 µM” value at Human A1AR stood at 37 ± 4%. The inhibition at 10 µM at D4R worked out at 27 ± 4%. For the same compound, the “H1R % displacement at 10 µM” value on H1R is 40 ± 1%.
At Human D2R, `CCCN(CCCCC(=O)Nc1nc2c(OC)ccc(OC)c2s1)C1Cc2ccccc2C1` [Compound 30] registered an EC50 of 180 ± 40 nM. This compound gave an Emax at Human D2R of 77 ± 5%. Also, the “A1AR % displacement at 10 µM” value at Human A1AR worked out at 35 ± 1%. Besides, the Ki at Human A1AR (mean±SEM of two experiments in duplicate, read-out: A1AR binding affinity Ki) is more than 10000 nM; at D4R, more than 10000 nM; at H1R (mean±SEM of two experiments in duplicate, read-out: H1R binding affinity Ki), more than 10000 nM. Further, the inhibition at 10 µM at D4R was 19 ± 4%. Besides, the “H1R % displacement at 10 µM” value at H1R is 40 ± 3%.

For the origin of these results see article PMC8456950, “Structure‐Guided Design of G‐Protein‐Coupled Receptor Polypharmacology” (Angewandte Chemie (International Ed. in English), 2021).
